The subject of data set [1] is Hepatitis B virus. The data set is described as follows: Antiviral activity against Hepatitis B virus infected in human HepG2.2.15 cells assessed as reduction in HBsAg level measured after 4 days by AlphaLisa assay. The data set is classed as functional, organism-based. Conditions: HepG2.2.15, 96 h. For orientation: Bead proximity is the source of the signal in Alpha formats.

Data set [2] is described as follows: Cytotoxicity against human HepG2.2.15 cells assessed as reduction in cell viability measured after 4 days by CellTiter-Glo reagent based assay. Set-up: species or system HepG2 2.2.15. Conditions: time 4 day. A general note: In ATP-based viability assays light output follows the ATP content of the culture.
Data set [3] can be described thus: 1-Octanol/saturated PBS buffer distribution coefficient, logD of the compound incubated for 1 hr by LC-MS/MS analysis. The format is physicochemical.
For data set [4], the target named is Terminal nucleotidyltransferase 4B (Homo sapiens) (UniProt Q8NDF8). The data set is described as follows: Inhibition of Myc-DDK-tagged human PAPD5 expressed in HEK293 cells assessed as inhibition of poly-adenylation reaction using P32-labeled RNA oligonucleotides (5'-GCCUUUCAUCUCUAACUGCGAAAAAAAAAA-3') as substrate measured for 20 mins by phosphor imaging analysis. The following applies: dose 0.37-10 µM.
Terminal nucleotidyltransferase 4B (Homo sapiens), sequence (Q8NDF8 whole entry): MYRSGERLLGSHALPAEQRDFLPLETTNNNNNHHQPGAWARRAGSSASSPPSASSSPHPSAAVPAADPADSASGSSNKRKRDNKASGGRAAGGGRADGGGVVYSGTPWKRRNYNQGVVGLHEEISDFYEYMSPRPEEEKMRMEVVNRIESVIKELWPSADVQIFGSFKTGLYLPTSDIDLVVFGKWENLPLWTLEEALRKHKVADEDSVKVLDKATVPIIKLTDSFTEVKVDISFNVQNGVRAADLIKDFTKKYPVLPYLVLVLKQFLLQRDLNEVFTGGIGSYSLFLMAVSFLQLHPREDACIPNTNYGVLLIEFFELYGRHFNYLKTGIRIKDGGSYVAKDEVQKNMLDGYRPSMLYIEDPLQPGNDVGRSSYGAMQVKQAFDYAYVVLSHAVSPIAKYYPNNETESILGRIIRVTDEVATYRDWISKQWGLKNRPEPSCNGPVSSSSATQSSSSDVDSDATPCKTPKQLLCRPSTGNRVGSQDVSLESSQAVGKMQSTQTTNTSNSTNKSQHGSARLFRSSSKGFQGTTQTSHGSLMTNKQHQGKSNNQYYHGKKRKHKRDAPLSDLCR

For data set [5], the target named is T1, Solute carrier organic anion transporter family member 1B1 (Homo sapiens, UniProt Q9Y6L6).
T1 sequence (Q9Y6L6 whole entry): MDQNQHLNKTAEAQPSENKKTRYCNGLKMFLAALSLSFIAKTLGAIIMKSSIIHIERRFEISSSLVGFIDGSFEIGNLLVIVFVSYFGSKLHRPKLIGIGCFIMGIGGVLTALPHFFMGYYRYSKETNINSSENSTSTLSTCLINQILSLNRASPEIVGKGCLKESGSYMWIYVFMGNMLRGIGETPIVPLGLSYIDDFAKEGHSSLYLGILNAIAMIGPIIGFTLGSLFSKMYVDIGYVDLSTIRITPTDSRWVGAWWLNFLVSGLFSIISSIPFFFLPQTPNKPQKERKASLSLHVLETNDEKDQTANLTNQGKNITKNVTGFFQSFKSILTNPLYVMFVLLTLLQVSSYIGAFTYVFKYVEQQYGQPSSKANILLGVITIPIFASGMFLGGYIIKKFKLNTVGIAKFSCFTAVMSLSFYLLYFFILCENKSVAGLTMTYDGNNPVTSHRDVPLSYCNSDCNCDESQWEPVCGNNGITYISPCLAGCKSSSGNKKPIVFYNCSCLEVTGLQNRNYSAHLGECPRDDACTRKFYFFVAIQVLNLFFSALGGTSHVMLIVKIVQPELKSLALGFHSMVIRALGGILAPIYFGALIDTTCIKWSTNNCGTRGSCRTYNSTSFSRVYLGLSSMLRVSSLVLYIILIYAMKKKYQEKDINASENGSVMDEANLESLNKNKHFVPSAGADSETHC
The data set is described as follows: Substrate activity at OATP1B1 (unknown origin) expressed in HEK293 cells assessed as ratio of drug uptake in absence of transporter inhibitor,estradiol-17beta-glucuronide to drug uptake in presence of transporter inhibitor, estradiol-17beta-glucuronide by LC-MS/MS analysis. The format is ADME, cell-based.

For a further data set, the system named is OATP1B1. Nature of the data set: Ratio of drug uptake in HEK293 cells transfected with OATP1B1 (unknown origin) in absence of transporter inhibitor, estradiol-17beta-glucuronide to drug uptake in HEK293 cells in absence of transporter inhibitor, estradiol-17beta-glucuronide by LC-MS/MS analysis. The following applies: human, HEK293 cells transfected with OATP1B1 versus HEK293 cells. The format is ADME, cell-based.

Data set [6] in a line: Efflux ratio of apparent permeability in MDCK-MDR1 cells at 1 uM after 120 mins by LC-MS/MS analysis. The data set is classed as ADME, cell-based, Canis lupus familiaris. The following applies: dog.
Another data set relates to OATP1B3. Nature of the data set: Ratio of drug uptake in HEK293 cells transfected with OATP1B3 (unknown origin) in absence of transporter inhibitor, estradiol-17beta-glucuronide to drug uptake in HEK293 cells in absence of transporter inhibitor, estradiol-17beta-glucuronide by LC-MS/MS analysis. The format is ADME, cell-based. The following applies: human, HEK293 cells transfected with OATP1B3 versus HEK293 cells.

For data set [7], the target named is T2, Solute carrier organic anion transporter family member 1B3 (Homo sapiens, UniProt Q9NPD5).
T2 sequence (Q9NPD5 whole entry): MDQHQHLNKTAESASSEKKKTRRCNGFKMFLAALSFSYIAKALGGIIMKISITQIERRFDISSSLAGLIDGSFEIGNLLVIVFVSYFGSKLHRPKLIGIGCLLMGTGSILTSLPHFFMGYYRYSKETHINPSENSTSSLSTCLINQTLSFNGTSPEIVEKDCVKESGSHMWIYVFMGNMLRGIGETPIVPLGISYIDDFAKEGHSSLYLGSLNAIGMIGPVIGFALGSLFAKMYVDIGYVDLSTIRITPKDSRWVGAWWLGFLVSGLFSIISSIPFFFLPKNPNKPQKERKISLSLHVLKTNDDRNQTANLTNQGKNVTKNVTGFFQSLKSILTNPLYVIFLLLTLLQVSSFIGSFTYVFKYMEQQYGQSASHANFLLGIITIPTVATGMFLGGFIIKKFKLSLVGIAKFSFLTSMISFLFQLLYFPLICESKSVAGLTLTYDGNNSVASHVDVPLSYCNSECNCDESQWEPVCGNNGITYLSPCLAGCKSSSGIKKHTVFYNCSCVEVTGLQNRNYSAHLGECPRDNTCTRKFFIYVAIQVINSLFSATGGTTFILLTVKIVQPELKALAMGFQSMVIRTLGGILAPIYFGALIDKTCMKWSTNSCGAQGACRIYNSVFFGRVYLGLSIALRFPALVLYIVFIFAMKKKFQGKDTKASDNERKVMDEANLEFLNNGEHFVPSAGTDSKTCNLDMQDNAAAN
Nature of the data set: Substrate activity at OATP1B3 (unknown origin) expressed in HEK293 cells assessed as ratio of drug uptake in absence of transporter inhibitor, estradiol-17beta-glucuronide to drug uptake in presence of transporter inhibitor, estradiol-17beta-glucuronide by LC-MS/MS analysis. The data set is classed as ADME, cell-based.

In data set [8] the target is Terminal nucleotidyltransferase 4A (Homo sapiens) (UniProt Q5XG87). The data set is described as follows: Inhibition of human PAPD7 expressed in HEK293 cells assessed as inhibition of poly-adenylation reaction using P32-labeled RNA oligonucleotides (5'-GCCUUUCAUCUCUAACUGCGAAAAAAAAAA-3') as substrate measured for 3 hrs by phosphor imaging analysis. The data set is classed as cell-based. The following applies: dose 0.37-10 µM.
Terminal nucleotidyltransferase 4A (Homo sapiens), sequence (Q5XG87 whole entry): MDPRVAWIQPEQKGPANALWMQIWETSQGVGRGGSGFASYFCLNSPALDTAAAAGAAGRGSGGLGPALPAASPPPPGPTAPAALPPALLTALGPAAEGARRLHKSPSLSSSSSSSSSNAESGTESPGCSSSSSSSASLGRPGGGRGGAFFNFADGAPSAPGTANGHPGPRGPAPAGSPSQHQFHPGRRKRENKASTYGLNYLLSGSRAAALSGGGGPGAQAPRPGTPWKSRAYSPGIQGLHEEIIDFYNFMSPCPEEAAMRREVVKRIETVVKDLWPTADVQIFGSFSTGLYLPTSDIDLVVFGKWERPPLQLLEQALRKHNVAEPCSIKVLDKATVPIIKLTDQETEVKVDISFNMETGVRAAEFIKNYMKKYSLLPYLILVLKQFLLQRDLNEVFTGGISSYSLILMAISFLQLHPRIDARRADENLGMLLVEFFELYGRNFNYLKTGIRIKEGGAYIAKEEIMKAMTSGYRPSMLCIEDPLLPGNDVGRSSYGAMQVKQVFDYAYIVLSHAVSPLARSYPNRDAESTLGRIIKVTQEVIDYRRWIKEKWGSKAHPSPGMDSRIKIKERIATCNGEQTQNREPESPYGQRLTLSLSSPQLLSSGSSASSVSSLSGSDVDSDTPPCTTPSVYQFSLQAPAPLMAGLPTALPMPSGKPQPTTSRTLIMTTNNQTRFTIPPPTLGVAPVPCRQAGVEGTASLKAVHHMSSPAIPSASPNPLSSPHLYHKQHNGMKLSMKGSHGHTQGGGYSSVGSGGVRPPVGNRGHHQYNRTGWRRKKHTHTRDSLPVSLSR

A short description of data set [9]: Apparent permeability across apical to basolateral side in MDCK-MDR1 cells at 1 uM measured after 120 mins by LC-MS/MS analysis. The data set is classed as ADME, cell-based, Canis lupus familiaris. The following applies: dog.
The subject of data set [10] is Hepatitis B virus. Nature of the data set: Antiviral activity against Hepatitis B virus infected in human HepG2.2.15 cells assessed as reduction in HBV pregenomic mRNA level at 1 uM measured after 5 days by Northern blot analysis. The format is functional, organism-based. Conditions: time 5.0 day.
The subject of data set [11] is Hepatitis B virus. Nature of the data set: Antiviral activity against Hepatitis B virus infected in human HepG2.2.15 cells assessed as reduction in HBV subgenomic 2.4/2.1 kb mRNA level at 1 uM measured after 5 days by Northern blot analysis. The data set is classed as functional, organism-based. The following applies: time 5.0 day.
A short description of data set [12]: Apparent permeability across basolateral to apical side in MDCK-MDR1 cells at 1 uM measured after 120 mins by LC-MS/MS analysis. The format is ADME, cell-based, Canis lupus familiaris. The following applies: dog.

In general, EC50 refers to the concentration giving half of the maximal effect. A word on the CC50: it is the concentration at which the toxic effect on the cells reaches its halfway point. In general, logD refers to the decadic logarithm of the distribution of all forms, ionised or not, between an organic phase and buffer at a given pH. Read a low logD as lower lipophilicity. The efflux ratio is the permeability from basolateral to apical divided by that in the opposite direction, in the common usage. For orientation: Papp A→B means how fast a substance crosses the layer from the apical side. The term Papp B→A denotes the apparent permeability from the basolateral to the apical side of a cell layer.

Calls of active or inactive are those of the source. No cut-off for these calls is given here.

As to `COc1cc2c(cc1OCCCCCC(=O)O)C[C@@H](C(C)C)n1cc(C(=O)O)c(=O)cc1-2`, in the data set with Hepatitis B virus [1], the EC50 came to 87 nM. Moreover, in data set [2], the CC50 at 96 h is > 10000 nM.
On to `COc1cc2c(cc1OCCCOCC(=O)O)C[C@@H](C(C)C)n1cc(C(=O)O)c(=O)cc1-2`, for which the EC50 with Hepatitis B virus [1] is 2780 nM. For the same compound, the CC50 at 96 h in [2] was > 10000 nM.
In the same order, the values of `COc1cc2c(cc1OCCCCC(=O)O)C[C@@H](C(C)C)n1cc(C(=O)O)c(=O)cc1-2` are 380 nM and > 10000 nM.
Take `COc1cc2c(cc1OCCCCCCCC(=O)O)C[C@@H](C(C)C)n1cc(C(=O)O)c(=O)cc1-2`: the EC50 with Hepatitis B virus [1] is 7.6 nM. The CC50 at 96 h in data set [2] was > 10000 nM. The logD at 1 h in [3] was 0.07.
Take `COCCCOc1cc2c(cc1OC)-c1cc(=O)c(C(=O)O)cn1[C@H](C(C)C)C2`: the inhibition result in [4] and in data set [8] was “Dose-Dependent Effect” each time. In addition, the Ratio worked out at 0.38 in [5] and 0.42 in data set [7]. The results for the uptake ratio in the data set on OATP1B1 and with OATP1B3 were 0.71 and 0.56, respectively. The EC50 with Hepatitis B virus [1] was 1.8 nM. For the same compound, the efflux ratio at 2 h, 1 µM in [6] came out at 3.9. Besides, the CC50 at 96 h in data set [2] was > 10000 nM. Also, in [3], the logD at 1 h is 1.39. Besides, the Papp A→B at 2 h, 1 µM in data set [9] was determined as 9.17 ×10⁻⁶ cm/s. The outcome with Hepatitis B virus [10] and in the data set with Hepatitis B virus [11] was Active. For the same compound, the Papp B→A at 2 h, 1 µM in data set [12] turned out to be 35.8 ×10⁻⁶ cm/s.
In the case of `COc1cc2c(cc1OCCCC(=O)O)C[C@@H](C(C)C)n1cc(C(=O)O)c(=O)cc1-2`, the EC50 in the data set on Hepatitis B virus [1] is 1010 nM. The CC50 at 96 h in [2] is > 10000 nM.
Turning to `COc1cc2c(cc1OCC(=O)O)C[C@@H](C(C)C)n1cc(C(=O)O)c(=O)cc1-2`, in the data set with Hepatitis B virus [1], the EC50 was > 10000 nM. Moreover, the CC50 at 96 h in [2] is > 10000 nM.
Turning to `COc1cc2c(cc1OCCCCCCCCC(=O)O)C[C@@H](C(C)C)n1cc(C(=O)O)c(=O)cc1-2`, the EC50 with Hepatitis B virus [1] came to 4.6 nM. For the same compound, in data set [2], the CC50 at 96 h is > 10000 nM. For the same compound, the logD at 1 h in data set [3] was 0.7.
